Experimental data taken from patent US20140242093A1, “METHODS AND COMPOSITIONS FOR MODULATING THE INNATE IMMUNE RESPONSE AND/OR MYOGENESIS IN A MAMMALIAN SUBJECT” (FRED HUTCHINSON CANCER RESEARCH CENTER, priority 2011, published 2014).

What was measured:
Human myoblasts = assay: Expression array of the innate immune response to lentiviral infection versus uninfected cells; assay type: cell-based
Protocol: RNA was harvested from the lenti-viral infected cells and uninfected control cells at 24 hours after infection.

[1] = tested on: cultured human skeletal muscle cells; settings: cited from earlier work

DUX4-fl: full-length DUX4 protein (SEQ ID NO:110), expressed from lentiviral or pCS2 vectors or in vitro translated
IFITM2 expression ratio vs NoLenti (.fc) (Human myoblasts; gene IFITM2 NM_006435.2, vs uninfected, 24 hours after infection): −0.46 log2 fold change | IFITM3 expression ratio vs GFP (.fc) (Human myoblasts; gene IFITM3 NM_021034.2, vs lenti-GFP, 24 hours after infection): −1.95 log2 fold change | IFITM3 expression ratio vs NoLenti (.fc) (Human myoblasts; gene IFITM3 NM_021034.2, vs uninfected, 24 hours after infection): −0.01 log2 fold change | IL1R1 expression ratio vs GFP (.fc) (Human myoblasts; gene IL1R1 NM_000877.2, vs lenti-GFP, 24 hours after infection): −1.34 log2 fold change | IL1R1 expression ratio vs NoLenti (.fc) (Human myoblasts; gene IL1R1 NM_000877.2, vs uninfected, 24 hours after infection): 0.09 log2 fold change | IL7R expression ratio vs GFP (.fc) (Human myoblasts; gene IL7R NM_002185.2, vs lenti-GFP, 24 hours after infection): −2.26 log2 fold change | IL7R expression ratio vs NoLenti (.fc) (Human myoblasts; gene IL7R NM_002185.2, vs uninfected, 24 hours after infection): −0.49 log2 fold change | IL8 expression ratio vs GFP (.fc) (Human myoblasts; gene IL8 NM_000584.2, vs lenti-GFP, 24 hours after infection): −3.88 log2 fold change | IL8 expression ratio vs NoLenti (.fc) (Human myoblasts; gene IL8 NM_000584.2, vs uninfected, 24 hours after infection): −0.13 log2 fold change | IL18BP expression ratio vs GFP (.fc) (Human myoblasts; gene IL18BP NM_173042.2, vs lenti-GFP, 24 hours after infection): −1.25 log2 fold change | IL18BP expression ratio vs NoLenti (.fc) (Human myoblasts; gene IL18BP NM_173042.2, vs uninfected, 24 hours after infection): 0.85 log2 fold change | IRF7 expression ratio vs GFP (.fc) (Human myoblasts; gene IRF7 NM_004029.2, vs lenti-GFP, 24 hours after infection): −1.96 log2 fold change | IRF7 expression ratio vs NoLenti (.fc) (Human myoblasts; gene IRF7 NM_004029.2, vs uninfected, 24 hours after infection): 1.02 log2 fold change | IRF9 expression ratio vs GFP (.fc) (Human myoblasts; gene IRF9 NM_006084.4, vs lenti-GFP, 24 hours after infection): −2.25 log2 fold change | IRF9 expression ratio vs NoLenti (.fc) (Human myoblasts; gene IRF9 NM_006084.4, vs uninfected, 24 hours after infection): 0.20 log2 fold change | MX1 expression ratio vs GFP (.fc) (Human myoblasts; gene MX1 NM_002462.2, vs lenti-GFP, 24 hours after infection): −5.67 log2 fold change | MX1 expression ratio vs NoLenti (.fc) (Human myoblasts; gene MX1 NM_002462.2, vs uninfected, 24 hours after infection): 1.58 log2 fold change | NFIL3 expression ratio vs GFP (.fc) (Human myoblasts; gene NFIL3 NM_005384.2, vs lenti-GFP, 24 hours after infection): −1.82 log2 fold change | NFIL3 expression ratio vs NoLenti (.fc) (Human myoblasts; gene NFIL3 NM_005384.2, vs uninfected, 24 hours after infection): 0.07 log2 fold change | NFKBIA expression ratio vs GFP (.fc) (Human myoblasts; gene NFKBIA NM_020529.1, vs lenti-GFP, 24 hours after infection): −3.00 log2 fold change | NFKBIA expression ratio vs NoLenti (.fc) (Human myoblasts; gene NFKBIA NM_020529.1, vs uninfected, 24 hours after infection): −0.83 log2 fold change | NFKBIZ expression ratio vs GFP (.fc) (Human myoblasts; gene NFKBIZ NM_001005474.1, vs lenti-GFP, 24 hours after infection): −1.57 log2 fold change | NFKBIZ expression ratio vs NoLenti (.fc) (Human myoblasts; gene NFKBIZ NM_001005474.1, vs uninfected, 24 hours after infection): 0.30 log2 fold change | STAT1 expression ratio vs GFP (.fc) (Human myoblasts; gene STAT1 NM_007315.2, vs lenti-GFP, 24 hours after infection): −2.92 log2 fold change | STAT1 expression ratio vs NoLenti (.fc) (Human myoblasts; gene STAT1 NM_007315.2, vs uninfected, 24 hours after infection): 1.08 log2 fold change | STAT2 expression ratio vs GFP (.fc) (Human myoblasts; gene STAT2 NM_005419.2, vs lenti-GFP, 24 hours after infection): −2.69 log2 fold change | STAT2 expression ratio vs NoLenti (.fc) (Human myoblasts; gene STAT2 NM_005419.2, vs uninfected, 24 hours after infection): −0.77 log2 fold change | TLR3 expression ratio vs GFP (.fc) (Human myoblasts; gene TLR3 NM_003265.2, vs lenti-GFP, 24 hours after infection): −1.27 log2 fold change | TLR3 expression ratio vs NoLenti (.fc) (Human myoblasts; gene TLR3 NM_003265.2, vs uninfected, 24 hours after infection): −0.06 log2 fold change | TNFAIP2 expression ratio vs GFP (.fc) (Human myoblasts; gene TNFAIP2 NM_006291.2, vs lenti-GFP, 24 hours after infection): −1.59 log2 fold change | TNFAIP2 expression ratio vs NoLenti (.fc) (Human myoblasts; gene TNFAIP2 NM_006291.2, vs uninfected, 24 hours after infection): −0.42 log2 fold change | TNFAIP3 expression ratio vs GFP (.fc) (Human myoblasts; gene TNFAIP3 NM_006290.2, vs lenti-GFP, 24 hours after infection): −2.90 log2 fold change | TNFAIP3 expression ratio vs NoLenti (.fc) (Human myoblasts; gene TNFAIP3 NM_006290.2, vs uninfected, 24 hours after infection): −0.38 log2 fold change | TNFAIP6 expression ratio vs GFP (.fc) (Human myoblasts; gene TNFAIP6 NM_007115.2, vs lenti-GFP, 24 hours after infection): −2.21 log2 fold change | TNFAIP6 expression ratio vs NoLenti (.fc) (Human myoblasts; gene TNFAIP6 NM_007115.2, vs uninfected, 24 hours after infection): 1.63 log2 fold change | TNFRSF6B expression ratio vs GFP (.fc) (Human myoblasts; gene TNFRSF6B NM_032945.2, vs lenti-GFP, 24 hours after infection): −1.68 log2 fold change | TNFRSF6B expression ratio vs NoLenti (.fc) (Human myoblasts; gene TNFRSF6B NM_032945.2, vs uninfected, 24 hours after infection): −0.29 log2 fold change | TNFRSF10A expression ratio vs GFP (.fc) (Human myoblasts; gene TNFRSF10A NM_003844.2, vs lenti-GFP, 24 hours after infection): −1.13 log2 fold change | TNFRSF10A expression ratio vs NoLenti (.fc) (Human myoblasts; gene TNFRSF10A NM_003844.2, vs uninfected, 24 hours after infection): 0.07 log2 fold change | TNFRSF14 expression ratio vs GFP (.fc) (Human myoblasts; gene TNFRSF14 NM_003820.2, vs lenti-GFP, 24 hours after infection): −2.72 log2 fold change | TNFRSF14 expression ratio vs NoLenti (.fc) (Human myoblasts; gene TNFRSF14 NM_003820.2, vs uninfected, 24 hours after infection): −1.36 log2 fold change | TNFSF10 expression ratio vs GFP (.fc) (Human myoblasts; gene TNFSF10 NM_003810.2, vs lenti-GFP, 24 hours after infection): −1.13 log2 fold change | TNFSF10 expression ratio vs NoLenti (.fc) (Human myoblasts; gene TNFSF10 NM_003810.2, vs uninfected, 24 hours after infection): 0.14 log2 fold change | TNFSF13B expression ratio vs GFP (.fc) (Human myoblasts; gene TNFSF13B NM_006573.3, vs lenti-GFP, 24 hours after infection): −1.76 log2 fold change | TNFSF13B expression ratio vs NoLenti (.fc) (Human myoblasts; gene TNFSF13B NM_006573.3, vs uninfected, 24 hours after infection): 0.12 log2 fold change | number of lentivirus-induced genes whose induction is suppressed (Human myoblasts; out of 341): 317 genes | number of the 341 lenti-GFP induced genes induced 2-fold or more (Human myoblasts; vs uninfected cells, 24 hours): 34 genes | toxicity of forced over-expression [1]: toxic to cells, inducing apoptotic cell death
